In brackets after ≈: the same amount, converted by molar mass.
Experiments:
[1] = system: Staphylococcus aureus; test: Antimicrobial activity against Staphylococcus aureus assessed as zone of inhibition incubated for 20 hrs by agar well diffusion assay; format: functional
[2] = system: Escherichia coli; test: Antimicrobial activity against Escherichia coli assessed as zone of inhibition incubated for 20 hrs by agar well diffusion assay; format: functional
[3] = system: Mycobacterium leprae; test: Anti-leprotic activity against Mycobacterium leprae infected in 538 CBA mouse assessed as number of Mycobacterium leprae in paw pads at 6 mg/kg administrated via gastric tube 5 times a week and measured 7 months post infection; format: functional
[4] = system: Mycobacterium leprae; test: Anti-leprotic activity against Mycobacterium leprae infected in 538 CBA mouse assessed as number of Mycobacterium leprae in paw pads at 2 mg/kg administrated via gastric tube 5 times a week and measured 7 months post infection; format: functional
[5] = system: Mycobacterium leprae; test: (§1) Inhibition of PGL1 synthesis in Mycobacterium leprae infected Swiss Webster mouse macrophages assessed as decrease in [U-14C]PA incorporation at 0.2 uM preincubated for 4 days post infection followed by [U-14C]PA addition and measured after 7 days by liquid scintillation counter analysis relative to control; format: functional
[6] = system: Mycobacterium leprae; test: as §1, with “2” for “0.2”; format: functional
[7] = system: Monocyte; test: Antiinflammatory activity in human monocytes assessed as inhibition of LPS-induced TNFaplha production at 50 uM preincubated for 15 mins followed by LPS addition and measured after 4 hrs by ELISA relative to control; format: functional
[8] = Cytotoxicity against LPS-induced human monocytes assessed as cell viability at 50 uM by tryphan blue staining based assay relative to control; design: species or system Monocyte; settings: read-out: Activity
[9] = system: Mycolicibacterium smegmatis; test: Antimycobacterial activity against Mycobacterium smegmatis mc2 155 incubated for 2 days by spectrophotometric based assay; format: functional; settings: MC2 155, 48 h
[10] = system: Mycolicibacterium smegmatis; test: Antimicrobial activity against Mycobacterium smegmatis incubated for 24 hrs by broth microdilution assay; format: functional
[11] = system: Mycolicibacterium aurum; test: Antimicrobial activity against Mycobacterium aurum incubated for 24 hrs by broth microdilution assay; format: functional
[12] = system: Mycolicibacterium vaccae; test: Antimicrobial activity against Mycobacterium vaccae incubated for 24 hrs by broth microdilution assay; format: functional
[13] = system: Mycolicibacterium fortuitum; test: Antimicrobial activity against Mycobacterium fortuitum incubated for 24 hrs by broth microdilution assay; format: functional
[14] = Selectivity index, ratio of IC50 for African green monkey Vero cells to MIC for antitubercular activity against Mycobacterium tuberculosis H37Rv; format: toxicity; settings: Vero cells, read-out: Selectivity Index
[15] = system: Mycobacterium tuberculosis; test: Antitubercular activity against Mycobacterium tuberculosis H37Rv ATCC 27294 assessed as growth inhibition at 6.25 ug/ml by microplate alamar blue assay relative to control; format: functional
[16] = system: Mycolicibacterium smegmatis; test: Antimicrobial activity against Mycobacterium smegmatis incubated for 30 to 32 hrs under shaking condition; format: functional
[17] = system: Mycolicibacterium smegmatis; test: Antimicrobial activity against Mycobacterium smegmatis incubated for 30 to 32 hrs under shaking condition relative to control; format: functional
[18] = system: Monocyte; test: Antiinflammatory activity in human monocytes assessed as inhibition of LPS-induced TNFaplha production at 25 uM preincubated for 15 mins followed by LPS addition and measured after 4 hrs by ELISA relative to control; format: functional
[19] = system: Mycobacterium leprae; test: Anti-leprotic activity against Mycobacterium leprae infected in CBA mouse assessed as number of Mycobacterium leprae in paw pads at 30 mg/kg administrated 5 times a week and measured 7.5 months post infection (reference value: 3.91 +/- 0.33 10^5); format: functional
[20] = system: Mycobacterium leprae; test: Anti-leprotic activity against Mycobacterium leprae infected in CBA mouse assessed as number of Mycobacterium leprae in paw pads at 10 mg/kg administrated 5 times a week and measured 7.5 months post infection (reference value: 3.91 +/- 0.33 10^5); format: functional
[21] = Drug excretion in rat urine at 400 mg/kg, sc administered as single dose measured after 30 days; format: ADME, organism-based; settings: read-out: Drug excretion
[22] = Half life in rat at 400 mg/kg, sc administered as single dose; format: ADME, organism-based; settings: in vivo
[23] = system: Mycobacterium leprae; test: Anti-leprotic activity against Mycobacterium leprae infected in albino mouse assessed survival against infection at 400 mg/kg, sc administered 58 days post-infection and subsequent compound dosing at 200 mg/kg at 0.5, 1 or 2 months interval; format: functional
[24] = system: Plasmodium berghei; test: Antimalarial activity against Plasmodium berghei infected in albino mouse assessed survival against infection at 400 mg/kg, sc administered as single dose; format: functional
[25] = system: Mycobacterium tuberculosis; test: Antitubercular activity against Mycobacterium tuberculosis H37Rv ATCC 27294 assessed as inhibition of [3H]-thymidine incorporation relative to control; format: functional
[26] = system: Mycolicibacterium smegmatis; test: Inhibition of Mycobacterium smegmatis ATCC 607 dihydrofolic reductase assessed as ratio of Km to Ki
[27] = Inhibition of Mycobacterium smegmatis ATCC 607 dihydrofolic reductase; design: species or system Mycolicibacterium smegmatis
[28] = system: Mycolicibacterium smegmatis; test: Antimicrobial activity against Mycobacterium smegmatis ATCC 607; format: functional; settings: Mycolicibacterium smegmatis, ATCC 607; read-out: MIC

For `C[C@@H](O)[C@H]1C(=N)N2C(C(=O)O)=C(SCCNC=N)C[C@H]12`, the “diameter of the inhibition zone (DIZ)” value [1] was 25 mm and the “diameter of the inhibition zone (DIZ)” value [2] was 27 mm.
For `COc1cc(Sc2cnc(N)nc2N)cc(OC)c1Br`, the Activity [3] was 0.02 ×10⁷ No_unit and the Activity [4] was 0.66 ×10⁷ No_unit.
With `CCN(CC)CCC/N=c1/cc2n(-c3ccc(Cl)cc3)c3ccccc3nc-2cc1Nc1ccc(Cl)cc1` the inhibition at 0.2 µM [5] was 22% and the inhibition at 2 µM [6] was 90%.
With `O=C1c2c(F)c(F)c(F)c(F)c2C(=O)N1c1cnc(O)nc1O` the inhibition at 50 µM [7] was less than 10% and the viability at 50 µM [8] was 95%.
`O=C1c2ccccc2C(=O)N1c1ccc(S(=O)(=O)Nc2ccncn2)cc1` showed an MIC99 [9] of 2300 µM (≈ 875 µg/mL).
In the case of `COc1ncnc(SC(=S)N2CCCC2)c1[N+](=O)[O-]`, the MIC [10] is reported as 3.12 µg/mL (≈ 10.4 µM), the MIC [11] is reported as 1.56 µg/mL (≈ 5.19 µM) and the MIC [12] is reported as 0.8 µg/mL (≈ 2.66 µM). For the same compound, the Activity [3] was 0.029 ×10⁷ No_unit, the Activity [4] was 0.07 ×10⁷ No_unit and the MIC [13] was 1.56 µg/mL (≈ 5.19 µM).
For `Clc1nc(-c2cccs2)c2ncn(Cc3ccccc3)c2n1`, the selectivity ratio [14] was greater than 6.4 and the inhibition at 6.25 µg/mL [15] was greater than 90%.
For `CCn1cc(C(=O)N/N=C\c2c(Cl)cccc2Cl)c(=O)c2cc(F)c(N3CCN(C)CC3)cc21`, the MIC [16] was 27 µM (≈ 13.6 µg/mL) and the Activity [17] was greater than 30%.
`O=C1CCC(N2C(=O)c3ccccc3C2=O)C(=O)N1` (stereo not given) [THALIDOMIDE] showed an inhibition at 50 µM [7] of 15%, an inhibition at 25 µM [18] of less than 10% and a viability at 50 µM [8] of 98%.
Compound `N#Cc1cc([N+](=O)[O-])cnc1SC(=S)N1CCCCCC1` has an MIC [10] of 1.56 µg/mL (≈ 4.84 µM), an MIC [11] of 1.56 µg/mL (≈ 4.84 µM) and an MIC [12] of 0.4 µg/mL (≈ 1.24 µM). It also gave an Activity [3] of 0.28 ×10⁷ No_unit, an Activity [4] of 6.64 ×10⁷ No_unit and an MIC [13] of 0.8 µg/mL (≈ 2.48 µM).
`CC(C)/N=c1\cc2n(-c3ccc(Cl)cc3)c3ccccc3nc-2cc1Nc1ccc(Cl)cc1` [CLOFAZIMINE] gave an inhibition at 0.2 µM [5] of 70% and an inhibition at 2 µM [6] of 94%.
`CCCCCCCCC(CCC1CCCO1)C(=O)O` (stereo not given) gave an MIC99 [9] of 9600 µM (≈ 2600 µg/mL).
Compound `CN(C)C(=S)Sc1c([N+](=O)[O-])cc([N+](=O)[O-])nc1C#N` has an Activity [19] of 1.83 ×10⁵ No_unit and an Activity [20] of 2.13 ×10⁵ No_unit.
For `O=C1c2c(F)c(F)c(F)c(F)c2C(=O)N1c1ccc(F)c(F)c1`, the inhibition at 50 µM [7] was less than 10% and the viability at 50 µM [8] was 74%.
For `N#Cc1cc([N+](=O)[O-])cnc1SC(=S)N1CCCC1`, the MIC [10] was 3.12 µg/mL (≈ 10.6 µM), the MIC [11] was 1.56 µg/mL (≈ 5.3 µM) and the MIC [12] was 1.56 µg/mL (≈ 5.3 µM). For the same compound, the Activity [3] was 0.28 ×10⁷ No_unit, the Activity [4] was 0.56 ×10⁷ No_unit and the MIC [13] was 1.56 µg/mL (≈ 5.3 µM).
Compound `CN(C)C(=S)Sc1c(C#N)cc([N+](=O)[O-])cc1[N+](=O)[O-]` has an Activity [19] of 0.77 ×10⁵ No_unit and an Activity [20] of 0.83 ×10⁵ No_unit.
For `CCCCCCCCC(COC1CCCC1)C(=O)O` (stereo not given), the MIC99 [9] was 3600 µM (≈ 973 µg/mL).
With `CC(=O)Nc1ccc(S(=O)(=O)c2ccc(N(C)C(C)=O)cc2)cc1` the dose excreted at 720 h [21] was 44%, the half-life [22] was 27 days and the Survival [23] was greater than 8 weeks. The Survival [24] was 6 weeks.
`O=C1c2c(F)c(F)c(F)c(F)c2C(=O)N1c1cn(-c2ccccc2)c(=O)[nH]c1=O` gave an inhibition at 50 µM [7] of less than 10% and a viability at 50 µM [8] of 95%.
`CCC1(N2C(=O)c3ccccc3C2=O)C(=O)NC(=O)N(C2CCCCC2)C1=O` (stereo not given) gave an inhibition at 50 µM [7] of less than 10% and a viability at 50 µM [8] of 87%.
Work on `CCn1cc(C(=O)N/N=C\c2ccc(C)cc2)c(=O)c2cc(F)c(N3CCN(C)CC3)cc21` yielded an MIC [16] of 42.5 µM (≈ 19.1 µg/mL) and an Activity [17] greater than 30%.
For `c1ccc(Cn2cnc3c(-c4ccco4)ncnc32)cc1` [9-BENZYL-6-(FURAN-2-YL)-9H-PURINE], the selectivity ratio [14] was 2.7, the inhibition at 6.25 µg/mL [15] was greater than 90% and the “inhibition (INH)” value [25] was 59%.
For `CCCCCc1cnc2nc(N)nc(N)c2n1`, the Ratio [26] was 3420, the Ki [27] was 1.2 nM and the MIC [28] was 862 µM (≈ 200 µg/mL).

From ChEMBL document CHEMBL4613212, “Insights of synthetic analogues of anti-leprosy agents” (Bioorg Med Chem, 2019)
